Laboratory results taken from patent US8962611B2, “Substituted imidazopyridines as HDM2 inhibitors” (Merck Sharp & Dohme Corp., priority 2012, dated 2015).

Target: HDM2 (residues 17 to 125) (Homo sapiens (Human), UniProt Q00987)
Assay: HDM2 FRET assay (inhibition of p53 peptide binding to HDM2)
Settings: read-out: FRET IC50; 0.5 nM HDM2, 3 nM FITC peptide, two hour incubation; values rounded to the nearest integer
Text: Methods: An HDM2 FRET assay was developed to assess the compounds' inhibitory activity towards binding of p53 protein. […] Ratio of em520/em495 was used to calculate % inhibition and to obtain IC50 with 4-parameter logistic equation.
Concentration of compound was plotted against em520/Cem495 ratio signal. To generate IC50 values, the dose-response curves were fitted to a standard sigmoidal curve and IC50 values were derived by nonlinear regression analysis.

HDM2 (residues 17 to 125), sequence (Q00987 17-125): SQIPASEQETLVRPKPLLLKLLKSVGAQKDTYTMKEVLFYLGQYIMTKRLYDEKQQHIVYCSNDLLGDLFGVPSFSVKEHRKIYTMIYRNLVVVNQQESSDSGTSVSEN

C[C@H]1CC[C@H](Cn2c(N3CCC[C@H]3c3nccs3)nc3cc(-c4noc(=O)[nH]4)nc(-c4cncc(Cl)c4)c32)CC1 [Example 3.81, 3-{4-(5-chloropyridin-3-yl)-3-[(trans-4-methylcyclohexyl)methyl]-2-[(2S)-2-(1,3-thiazol-2-yl)pyrrolidin-1-yl]-3H-imidazo[4,5-c]pyridin-6-yl}-1,2,4-oxadiazol-5(4H)-one]
IC50: < 1 nM
